Measurements reported in patent publication US8754234B2, “Chiral 2-(benzylsulfinyl)thiazole derivatives and 2-[(1H-pyrazol-4-ylmethyl)sulfinyl]thiazole derivatives, processes for their preparation and their use as herbicides and plant growth regulators” (Bayer Cropscience AG, priority 2007, dated 2014).

Columns and labels:
Assay type in all cases: in vivo
[1] = tested on: Avena fatua, Stellaria media, Echinochloa crus galli, Lolium multiflorum, Setaria viridis, Abutilon theophrasti, Amaranthus retroflexus, Viola tricolor …; test: Pre-emergence herbicidal effect, harmful plants; details: pre-emergence method, application rate of 0.32 kg and less of active substance per hectare
From the text: (§1) Seeds of monocotyledonous or dicotyledonous weed plants or crop plants are placed in sandy loam in wood-fiber pots and covered with soil. The compounds according to the invention, formulated in the form of wettable powders (WP), are then applied as aqueous suspension at a water application rate of 600 l/ha (converted) with the addition of 0.2% of wetting agent to the surface of the covering soil. After the treatment, the pots are placed in a greenhouse and kept under good growth conditions for the test plants. After about 3 weeks, the effect of the preparations is scored visually in comparison with untreated controls (herbicidal effect in percent (%): 100% activity=the plants have died, 0% activity=like control plants).

[2] = tested on: Avena fatua, Echinochloa crus galli, Lolium multiflorum, Setaria viridis and Alopecurus myosuroides; test: Post-emergence herbicidal effect, harmful plants; details: post-emergence method, application rate of 0.32 kg and less of active substance per hectare
Experimental: (§2) Seeds of monocotyledonous and dicotyledonous weed and crop plants are placed in sandy loam in wood fibre pots, covered with soil and cultivated in a greenhouse under good growth conditions. 2 to 3 weeks after sowing, the test plants are treated at the one-leaf stage. The compounds according to the invention, formulated in the form of wettable powders (WP), are then applied as aqueous suspension at a water application rate of 600 l/ha (converted) with the addition of 0.2% of wetting agent to the green parts of the plants. After the test plants have been kept in the greenhouse under optimum growth conditions for about 3 weeks, the activity of the preparations is rated visually in comparison to untreated controls (herbicidal activity in percent (%): 100% activity=the plants have died, 0% activity=like control plants).

[3] = tested on: Triticum aestivum (summer wheat); test: Pre-emergence crop plant compatibility, summer wheat; details: scored visually after about 3 weeks
From the text: as §1

[4] = tested on: Lolium multiflorum (Italian ryegrass); test: Pre-emergence herbicidal effect, Italian ryegrass; details: after about 3 weeks
From the text: as §1

[5] = tested on: Echinochloa crus-galli (barnyard grass); test: Pre-emergence herbicidal effect, barnyard grass; details: after about 3 weeks
From the text: as §1

[6] = tested on: Setaria viridis (green foxtail); test: Pre-emergence herbicidal effect, green foxtail; details: after about 3 weeks
From the text: as §1

[7] = tested on: Viola tricolor (wild pansy); test: Pre-emergence herbicidal effect, wild pansy; details: after about 3 weeks
From the text: as §1

[8] = tested on: Brassica napus (winter rape); test: Pre-emergence crop plant compatibility, winter rape; details: after about 3 weeks
From the text: as §1

[9] = tested on: Alopecurus myosuroides (black-grass); test: Pre-emergence herbicidal effect, black-grass; details: after about 3 weeks
From the text: as §1

[10] = tested on: Stellaria media; test: Post-emergence herbicidal effect, Stellaria media; details: after about 3 weeks
Experimental: as §2

[11] = tested on: Setaria viridis (green foxtail); test: Post-emergence herbicidal effect, green foxtail; details: after about 3 weeks
Experimental: as §2

[12] = tested on: Polygunum convolvulus; test: Post-emergence herbicidal effect, Polygunum convolvulus; details: after about 3 weeks
Experimental: as §2

[13] = tested on: Lolium multiflorum (Italian ryegrass); test: Post-emergence herbicidal effect, Italian ryegrass; details: after about 3 weeks
Experimental: as §2

[14] = tested on: Avena fatua; test: Post-emergence herbicidal effect, Avena fatua; details: after about 3 weeks
Experimental: as §2

[15] = tested on: Zea mays (corn); test: Post-emergence crop plant compatibility, corn; details: after about 3 weeks
Experimental: as §2

[16] = 20 g of active compound/ha, formula (Ia) table
[17] = 80 g of active compound/ha, formula (Ia) table
[18] = 20 g of active compound/ha, formula (Ib) table
[19] = 80 g of active compound/ha, formula (Ib) table

## [O-][S@+](Cc1c(Cl)cccc1Cl)c1ncc(Br)s1 [Compound 1460]
[1]
  herbicidal activity against harmful plants: very good herbicidal activity

## [O-][S@+](Cc1c(F)cccc1F)c1ncc(Br)s1 [Compound 1449, 5-bromo-2-[(R)-(2,6-difluorobenzyl)sulfinyl]-1,3-thiazole]
[2]
  herbicidal activity against harmful plants: very good herbicidal activity
[1]
  herbicidal activity against harmful plants: very good herbicidal activity

## Cn1nc(C(F)(F)F)c(C[S@+]([O-])c2ncc(Cl)s2)c1OC(F)F [Compound 2555]
[2]
  herbicidal activity against harmful plants: very good herbicidal activity
[1]
  herbicidal activity against harmful plants: very good herbicidal activity

## [O-][S@+](Cc1c(Cl)cccc1Cl)c1ncc(Cl)s1 [Compound 1375]
[2]
  herbicidal activity against harmful plants: very good herbicidal activity
[1]
  herbicidal activity against harmful plants: very good herbicidal activity
[3]; 20 g of active compound/ha
  herbicidal effect in percent, TRZAS: 0%
[3]; 80 g of active compound/ha
  herbicidal effect in percent, TRZAS: 0%
[4]; [16]
  herbicidal effect in percent, LOLMU: 0%
[4]; [17]
  herbicidal effect in percent, LOLMU: 60%
[5]; 20 g of active compound/ha
  herbicidal effect in percent, ECHCG: 0%
[5]; 80 g of active compound/ha
  herbicidal effect in percent, ECHCG: 80%
[6]; [16]
  herbicidal effect in percent, SETVI: 0%
[6]; [17]
  herbicidal effect in percent, SETVI: 20%
[7]; 20 g of active compound/ha
  herbicidal effect in percent, VIOTR: 60%
[7]; 80 g of active compound/ha
  herbicidal effect in percent, VIOTR: 80%

## Cn1nc(C(F)(F)F)c(C[S@@+]([O-])c2ncc(Br)s2)c1OC(F)F [Compound 3725, 5-bromo-2-[(R)-{[5-(difluoromethoxy)-1-methyl-3-(trifluoromethyl)-1H-pyrazol-4-yl]methyl}sulfinyl]-1,3-thiazole]
[2]
  herbicidal activity against harmful plants: very good herbicidal activity
[1]
  herbicidal activity against harmful plants: very good herbicidal activity
[4]; [18]
  herbicidal effect in percent, LOLMU: 0%
[4]; [19]
  herbicidal effect in percent, LOLMU: 0%
[8]; 20 g of active compound/ha
  herbicidal effect in percent, BRSNW: 0%
[8]; 80 g of active compound/ha
  herbicidal effect in percent, BRSNW: 0%
[6]; [18]
  herbicidal effect in percent, SETVI: 0%
[6]; [19]
  herbicidal effect in percent, SETVI: 0%
[9]; 20 g of active compound/ha
  herbicidal effect in percent, ALOMY: 0%
[9]; 80 g of active compound/ha
  herbicidal effect in percent, ALOMY: 20%

## Cn1nc(C(F)(F)F)c(C[S@@+]([O-])c2ncc(Br)s2)c1OCC(F)(F)F [Compound 3728]
[2]
  herbicidal activity against harmful plants: very good herbicidal activity
[1]
  herbicidal activity against harmful plants: very good herbicidal activity
[10]; 20 g of active compound/ha
  herbicidal activity in percent, STEME: 0%
[10]; 80 g of active compound/ha
  herbicidal activity in percent, STEME: 10%
[11]; 20 g of active compound/ha
  herbicidal activity in percent, SETVI: 10%
[11]; 80 g of active compound/ha
  herbicidal activity in percent, SETVI: 10%
[12]; 80 g of active compound/ha
  herbicidal activity in percent, POLCO: 10%
[13]; 20 g of active compound/ha
  herbicidal activity in percent, LOLMU: 0%
[13]; 80 g of active compound/ha
  herbicidal activity in percent, LOLMU: 0%
[14]; 20 g of active compound/ha
  herbicidal activity in percent, AVEFA: 0%
[14]; 80 g of active compound/ha
  herbicidal activity in percent, AVEFA: 10%
[15]; 20 g of active compound/ha
  herbicidal activity in percent, ZEAMX: 0%
[15]; 80 g of active compound/ha
  herbicidal activity in percent, ZEAMX: 0%

## [O-][S@@+](Cc1c(Cl)cccc1Cl)c1ncc(Br)s1 [Compound 270]
[2]
  herbicidal activity against harmful plants: very good herbicidal activity
[1]
  herbicidal activity against harmful plants: very good herbicidal activity

## [O-][S@@+](Cc1c(Cl)cccc1Cl)c1ncc(Cl)s1 [Compound 185]
[2]
  herbicidal activity against harmful plants: very good herbicidal activity
[1]
  herbicidal activity against harmful plants: very good herbicidal activity
[3]; 20 g of active compound/ha
  herbicidal effect in percent, TRZAS: 0%
[3]; 80 g of active compound/ha
  herbicidal effect in percent, TRZAS: 10%
[4]; [16]
  herbicidal effect in percent, LOLMU: 70%
[4]; [17]
  herbicidal effect in percent, LOLMU: 90%
[5]; 20 g of active compound/ha
  herbicidal effect in percent, ECHCG: 90%
[5]; 80 g of active compound/ha
  herbicidal effect in percent, ECHCG: 100%
[6]; [16]
  herbicidal effect in percent, SETVI: 70%
[6]; [17]
  herbicidal effect in percent, SETVI: 100%
[7]; 20 g of active compound/ha
  herbicidal effect in percent, VIOTR: 60%
[7]; 80 g of active compound/ha
  herbicidal effect in percent, VIOTR: 70%

## Cn1nc(C(F)(F)F)c(C[S@+]([O-])c2ncc(Br)s2)c1Cl [Compound 2632, 5-Bromo-2-[(S)-{[5-chloro-1-methyl-3-(trifluoromethyl)-1H-pyrazol-4-yl]methyl}sulfinyl]-1,3-thiazole]
[2]
  herbicidal activity against harmful plants: very good herbicidal activity
[1]
  herbicidal activity against harmful plants: very good herbicidal activity

## Cn1nc(C(F)(F)F)c(C[S@@+]([O-])c2ncc(Br)s2)c1Cl [Compound 3720, 5-bromo-2-[(R)-{[5-chloro-1-methyl-3-(trifluoromethyl)-1H-pyrazol-4-yl]methyl}sulfinyl]-1,3-thiazole]
[2]
  herbicidal activity against harmful plants: very good herbicidal activity
[1]
  herbicidal activity against harmful plants: very good herbicidal activity

## Cn1nc(C(F)(F)F)c(C[S@+]([O-])c2ncc(Br)s2)c1OC(F)F [Compound 2637, 5-Bromo-2-[(S)-{[5-(difluoromethoxy)-1-methyl-3-(trifluoromethyl)-1H-pyrazol-4-yl]methyl}sulfinyl]-1,3-thiazole]
[2]
  herbicidal activity against harmful plants: very good herbicidal activity
[1]
  herbicidal activity against harmful plants: very good herbicidal activity
[4]; [18]
  herbicidal effect in percent, LOLMU: 10%
[4]; [19]
  herbicidal effect in percent, LOLMU: 100%
[8]; 20 g of active compound/ha
  herbicidal effect in percent, BRSNW: 0%
[8]; 80 g of active compound/ha
  herbicidal effect in percent, BRSNW: 0%
[6]; [18]
  herbicidal effect in percent, SETVI: 80%
[6]; [19]
  herbicidal effect in percent, SETVI: 90%
[9]; 20 g of active compound/ha
  herbicidal effect in percent, ALOMY: 60%
[9]; 80 g of active compound/ha
  herbicidal effect in percent, ALOMY: 90%

## Cn1nc(C(F)(F)F)c(C[S+]([O-])c2ncc(Br)s2)c1OC(F)F (racemic) [Racemate of 2637 (S config.) and 3725 (R config.), 5-bromo-2-({[5-(difluoromethoxy)-1-methyl-3-(trifluoromethyl)-1H-pyrazol-4-yl]methyl}sulfinyl)-1,3-thiazole]
[4]; [18]
  herbicidal effect in percent, LOLMU: 0%
[4]; [19]
  herbicidal effect in percent, LOLMU: 80%
[8]; 20 g of active compound/ha
  herbicidal effect in percent, BRSNW: 0%
[8]; 80 g of active compound/ha
  herbicidal effect in percent, BRSNW: 0%
[6]; [18]
  herbicidal effect in percent, SETVI: 0%
[6]; [19]
  herbicidal effect in percent, SETVI: 80%
[9]; 20 g of active compound/ha
  herbicidal effect in percent, ALOMY: 30%
[9]; 80 g of active compound/ha
  herbicidal effect in percent, ALOMY: 90%

## [O-][S@@+](Cc1c(F)cccc1F)c1ncc(Br)s1 [Compound 259, 5-Bromo-2-[(S)-(2,6-difluorobenzyl)sulfinyl]-1,3-thiazole]
[2]
  herbicidal activity against harmful plants: very good herbicidal activity
[1]
  herbicidal activity against harmful plants: very good herbicidal activity

## Cn1nc(C(F)(F)F)c(C[S@@+]([O-])c2ncc(Cl)s2)c1OC(F)F [Compound 3643]
[2]
  herbicidal activity against harmful plants: very good herbicidal activity
[1]
  herbicidal activity against harmful plants: very good herbicidal activity

## Cn1nc(C(F)(F)F)c(C[S@+]([O-])c2ncc(Br)s2)c1OCC(F)(F)F [Compound 2640]
[2]
  herbicidal activity against harmful plants: very good herbicidal activity
[1]
  herbicidal activity against harmful plants: very good herbicidal activity
[10]; 20 g of active compound/ha
  herbicidal activity in percent, STEME: 10%
[10]; 80 g of active compound/ha
  herbicidal activity in percent, STEME: 90%
[11]; 20 g of active compound/ha
  herbicidal activity in percent, SETVI: 100%
[11]; 80 g of active compound/ha
  herbicidal activity in percent, SETVI: 100%
[12]; 20 g of active compound/ha
  herbicidal activity in percent, POLCO: 20%
[12]; 80 g of active compound/ha
  herbicidal activity in percent, POLCO: 100%
[13]; 20 g of active compound/ha
  herbicidal activity in percent, LOLMU: 60%
[13]; 80 g of active compound/ha
  herbicidal activity in percent, LOLMU: 100%
[14]; 20 g of active compound/ha
  herbicidal activity in percent, AVEFA: 20%
[14]; 80 g of active compound/ha
  herbicidal activity in percent, AVEFA: 90%
[15]; 20 g of active compound/ha
  herbicidal activity in percent, ZEAMX: 0%
[15]; 80 g of active compound/ha
  herbicidal activity in percent, ZEAMX: 0%

## Cn1nc(C(F)(F)F)c(C[S@+]([O-])c2ncc(I)s2)c1OC(F)F [Compound 2719]
[2]
  herbicidal activity against harmful plants: very good herbicidal activity
[1]
  herbicidal activity against harmful plants: very good herbicidal activity
